Measurements reported in US20060204443A1, “Methods for tumor treatment using dendrimer conjugates” (The Government of the USA as represented by the Secretary …, priority 2005, published 2006).
Entries after “also recorded” stand apart in the source; their conditions may differ.

Legend:
[1] = system: Draining Lymph Nodes (LNs) from the Normal Breast Tissue; experiment: Dynamic micro-MR mammo-lymphangiography after injection into normal mammary gland (Example 1); type: in vivo, mice; settings: athymic nu/nu mice, 0.15 μmol Gd into the mammary gland; GPDM imaged at 12, 24, 36 min, then PAMAM-G6
Protocol: Mice were anesthetized with 1.15 mg sodium pentobarbital (Dainabot, Osaka, Japan), and then injected with 0.15-0.24 μmol Gd/5-8 μL of the PAMAM-G6 contrast agent into normal mammary glands or mammary tissue surrounding a tumor (peritumorally). Dynamic micro-MR images were obtained using a 1.5-Tesla superconductive magnet unit (Signa LX, General Electric Medical System, Milwaukee, Wis.) with a birdcage type coil of 3 cm diameter fixed by a custom made coil holder. Single and double “breast coils” used for imaging breasts in humans are commercially available, for example, from GE Medical Systems (Milwaukee, Wis.) and are routinely available in outpatient MRI centers. The mice were wrapped with gauze to stabilize their body temperature and were placed at the center of the coils.
In order to evaluate the lymphatic drainage from the normal mammary gland of either Balb/c mice (n=5) or athymic nu/nu mice (n=5), 3D-fast spoiled gradient echo (3D-fastSPGR (efgre3d package; Signa Horizon, GE); repetition time/echo time 19.2/7.2 msec; inversion time 47 msec; 31.2 kHz, flip angle 30°, 4 excitations; 36 slice encoding steps; scan time 4 min 49 seconds) with chemical shift fat-suppression was used 6, 12, 18, 24, 30, 36, 42, and 48 min after injection of the contrast agent. The coronal images were reconstructed with 0.6-mm section thickness every 0.3-mm. The field of view was 8×4 cm and the size of the matrix was 512×256. The slice data were processed into 3D images using the maximum intensity projection (MIP) method with the same window and level (window 3500 and level 2100) (Advantage Windows, General Electric Medical System). After imaging, the mice were sacrificed by carbon dioxide inhalation.
Athymic nu/nu mice (n=4) were anesthetized and injected with 0.15 μmol Gd of GPDM into the mammary gland, and images were taken 12, 24, and 36 min after injection. Following these three images, these mice were subsequently injected with 0.15 μmol Gd of PAMAM-G6 contrast agent in the mammary gland, and images were taken at 12 and 24 min post-injection of the PAMAM-G6 contrast agent (at 48 and 60 min post-injection of GPDM).

[2] = system: deep lymphatic system (lymph nodes, thoracic duct); experiment: Whole-body dynamic 3D-micro-MRL after intracutaneous injection, normal mice (Examples 2, 3); type: in vivo; settings: for Number of Mice in Which the Thoracic Duct was Visualized/Number of Mice Examined: Normal Mice, 0.1 μmolGd intracutaneously
Protocol: The mice were anesthetized with 1.15 mg sodium pentobarbital (Dainabot, Osaka, Japan) by intraperitoneal injection, and then injected intracutaneously with 0.1 μmolGd of PAMAM-G8, DAB-G5, PAMAM-G4, Gadomer-17, or GPDM into four middle phalanges in all four extremities. Dynamic micro-MR images were obtained using a 1.5-Tesla superconductive magnet unit (Signa LX, General Electric Medical System, Milwaukee, Wis.) with a round birdcage type coil of 3 cm diameter fixed by a custom-made coil holder. Four to eight female mice (7 weeks old, 18-21 g body weight) in each group were used and each contrast agent was prepared at least three separate times for these imaging studies. The mice were wrapped with gauze to stabilize their body temperature and were placed at the center of the coils.
A 3D-fast spoiled gradient echo (3D-fastSPGR (efgre3d package; Signa Horizon, GE); repetition time/echo time 28.5/7.9 msec; inversion time 65 msec; 31.2 kHz, flip angle 30°, four excitations; 40 slice-encoding steps; scan time 7 min 36 seconds) with chemical shift fat-suppression was used 10, 20, 30, and 45 min after injection of the contrast agents. The coronal images were reconstructed with 0.6-mm section thickness at every 0.3-mm. The field of view was 6×3 cm and the size of the matrix was 512×256. The intensities of the regions of interest (for example, a whole axillary lymph node, and the liver) were measured, and then the time-intensity curves analyzed. The data were expressed as the axillary lymph node-to-muscle and the axillary lymph node-to-liver ratios. The slice data were processed into 3D images using the MIP method with the same window and level (window 3500 and level 2300) (Advantage Windows, General Electric Medical System). Two board-certified radiologists separately read a set of stereo views of 3D-MRL for all studies, and estimated the visualization of the thoracic duct. After imaging, the mice were sacrificed by carbon dioxide inhalation.
In this example, the PAMAM-G8 contrast agent is compared to GPDM. PAMAM-G8 was prepared as described in Example 2, and GPDM was purchased (Schering AG, Berlin, Germany). Animal models, administration of the contrast agents, and 3D-micro-MRL were as described in Example 2.

[3] = system: axillary lymph nodes and their lymphatic vessels; experiment: Dynamic 3D-MR lymphangiography, effect of contrast agent size (Example 4); type: in vivo, athymic nu/nu mice
Protocol: Mice were anesthetized with 1.15 mg sodium pentobarbital (Dainabot, Osaka, Japan) by intraperitoneal injection. Then 0.15 μmolGd/5 μL of all nano-size contrast agents or 0.45 μmolGd/5 μL of Gd-[DTPA]-dimeglumine were injected into normal mammary glands or mammary tissue surrounding a tumor. Dynamic MR images were obtained using a 1.5-Tesla superconductive magnet unit (Signa LX, General Electric Medical System, Milwaukee, Wis.) with a birdcage type coil of 3 cm diameter fixed by a custom-made coil holder. The mice were wrapped with gauze to conserve their body temperature and were placed at the center of the coils.
In order to evaluate the effect of contrast agent molecular size on the ability to visualize the lymphatics and lymph nodes of athymic nu/nu mice, thirty five non-tumor bearing nu/nu mice were divided into seven groups (n=5). The mice were evaluated with 3D-fast spoiled gradient echo (3D-fastSPGR (efgre3d package; Signa Horizon, GE); repetition time/echo time 19.2/7.2 msec; inversion time 47 msec; bandwidth 31.2 kHz, flip angle 30°, 4 excitations; 36 slice encoding steps; scan time 4 minutes 49 seconds) with chemical shift fat-suppression at 6, 12, 18, 24, 30, and 36 minutes post-injection of each contrast agent. The coronal images were reconstructed with 0.6-mm section thickness every 0.3-mm. The field of view was 8×4 cm and the size of the matrix was 512×256. The slice data were processed into 3D images using the maximum intensity projection (MIP) method with the same window and level (window 3500 and level 2100) (Advantage Windows, General Electric Medical System). The enhancement ratio was calculated by taking the average signal intensity in the axillary lymph node and dividing it by the signal intensity in the adjacent muscle.

[4] = system: axillary lymph nodes and their lymphatic vessels; experiment: as above; type: in vivo, athymic nu/nu mice; settings: triple dose, 3 min post-injection (data not shown)
[5] = Tokumitsu et al. 2000; cited from earlier work
[6] = mouse, in vivo, listed as Gd-DTPA

SMILES: CNC[C@H](O)[C@@H](O)[C@H](O)[C@H](O)CO.CNC[C@H](O)[C@@H](O)[C@H](O)[C@H](O)CO.O=C([O-])CN(CCN(CC(=O)[O-])CC(=O)O)CCN(CC(=O)[O-])CC(=O)O.[Gd+3] [GPDM, gadopentetate dimeglumine, reference compound]
- Visualization of draining lymph nodes and lymphatic vessels (FIG. 5) [1]: not well visualized
- Image enhancement after 45 minutes ([2]; Example 2, FIG. 10B): Virtually no image enhancement
- Visualization of deep lymph nodes ([2]; Example 2, normal mice, 10-45 min after injection): did not allow most of the lymph nodes to be visualized even at early times
- Visualization of deep lymph nodes ([2]; Example 3, FIG. 15): not with GPDM
- Number of Mice in Which the Thoracic Duct was Visualized/Number of Mice Examined ([2]; 10 min): 2/5
- Number of Mice in Which the Thoracic Duct was Visualized/Number of Mice Examined ([2]; 20 min): 0/5
- Number of Mice in Which the Thoracic Duct was Visualized/Number of Mice Examined ([2]; 30 min): 0/5
- Number of Mice in Which the Thoracic Duct was Visualized/Number of Mice Examined ([2]; 45 min): 0/5
- Visualization of axillary lymph nodes and their lymphatic vessels ([3]; 6-36 minutes post-injection into mammary gland): failed to opacify either the lymph nodes or the lymphatic vessels
- Signal intensity of adjacent muscle in comparison to G6 and G8 [3, 6]: significantly higher than those measured with G6 and G8; also recorded: higher signal in the adjacent muscle
- Signal intensity within the axillary lymph nodes in comparison to G6 and G8 [3, 6]: lower signal intensities; also recorded: significantly lower signal
- Contrast between target lymph node and surrounding tissue [4]: did not help to achieve good enough contrast
- Clearance from the body [5]: clear too rapidly from the body
